# Source: ChEMBL document CHEMBL3046776, “Antibacterial and antifungal screening of newly synthesized benzimidazole-clubbed chalcone derivatives” (2013)
# Key:
# Assay type in all cases: functional
# Staphylococcus aureus = assay: Antibacterial activity against Staphylococcus aureus ATCC 25923 assessed as growth inhibition by broth microdilution method
# Escherichia coli = assay: Antibacterial activity against Escherichia coli ATCC 25922 assessed as growth inhibition by broth microdilution method
# Aspergillus niger = assay: Antifungal activity against Aspergillus niger ATCC 1015 assessed as growth inhibition by broth microdilution method
# Enterococcus faecalis = assay: Antibacterial activity against Enterococcus faecalis ATCC 29212 assessed as growth inhibition by broth microdilution method
# Pseudomonas aeruginosa = assay: Antibacterial activity against Pseudomonas aeruginosa ATCC 27853 assessed as growth inhibition by broth microdilution method
# Candida albicans = assay: Antifungal activity against Candida albicans ATCC 10231 assessed as growth inhibition by broth microdilution method
compound,measurement,setting,value
COc1ccc(/C=C/C(=O)c2ccc(NC(=O)CSc3nc4ccccc4[nH]3)cc2)cc1OC,MIC,Staphylococcus aureus,62.5 µg/mL
same,MIC,Escherichia coli,31.2 µg/mL
same,MIC,Aspergillus niger,62.5 µg/mL
same,MIC,Enterococcus faecalis,250 µg/mL
same,MIC,Pseudomonas aeruginosa,125 µg/mL
same,MIC,Candida albicans,125 µg/mL
O=C(CSc1nc2ccccc2[nH]1)Nc1ccc(C(=O)/C=C/c2ccc([N+](=O)[O-])cc2)cc1,MIC,Staphylococcus aureus,62.5 µg/mL
same,MIC,Escherichia coli,62.5 µg/mL
same,MIC,Aspergillus niger,62.5 µg/mL
same,MIC,Enterococcus faecalis,125 µg/mL
same,MIC,Pseudomonas aeruginosa,125 µg/mL
same,MIC,Candida albicans,125 µg/mL
CN(C)c1ccc(/C=C/C(=O)c2ccc(NC(=O)CSc3nc4ccccc4[nH]3)cc2)cc1,MIC,Staphylococcus aureus,125 µg/mL
same,MIC,Escherichia coli,31.2 µg/mL
same,MIC,Aspergillus niger,125 µg/mL
same,MIC,Enterococcus faecalis,125 µg/mL
same,MIC,Pseudomonas aeruginosa,125 µg/mL
same,MIC,Candida albicans,125 µg/mL
O=C(CSc1nc2ccccc2[nH]1)Nc1ccc(C(=O)/C=C/c2ccc(Br)cc2)cc1,MIC,Staphylococcus aureus,125 µg/mL
same,MIC,Escherichia coli,31.2 µg/mL
same,MIC,Aspergillus niger,125 µg/mL
same,MIC,Enterococcus faecalis,125 µg/mL
same,MIC,Pseudomonas aeruginosa,125 µg/mL
same,MIC,Candida albicans,250 µg/mL
O=C(CSc1nc2ccccc2[nH]1)Nc1ccc(C(=O)/C=C/c2cccc(Cl)c2)cc1,MIC,Staphylococcus aureus,31.2 µg/mL
same,MIC,Escherichia coli,62.5 µg/mL
same,MIC,Aspergillus niger,125 µg/mL
same,MIC,Enterococcus faecalis,125 µg/mL
same,MIC,Pseudomonas aeruginosa,125 µg/mL
same,MIC,Candida albicans,250 µg/mL
O=C(CSc1nc2ccccc2[nH]1)Nc1ccc(C(=O)/C=C/c2cccc(Br)c2)cc1,MIC,Staphylococcus aureus,31.2 µg/mL
same,MIC,Escherichia coli,62.5 µg/mL
same,MIC,Aspergillus niger,250 µg/mL
same,MIC,Enterococcus faecalis,250 µg/mL
same,MIC,Pseudomonas aeruginosa,125 µg/mL
same,MIC,Candida albicans,250 µg/mL
COc1cc(/C=C/C(=O)c2ccc(NC(=O)CSc3nc4ccccc4[nH]3)cc2)cc(OC)c1OC,MIC,Staphylococcus aureus,31.2 µg/mL
same,MIC,Escherichia coli,31.2 µg/mL
same,MIC,Aspergillus niger,250 µg/mL
same,MIC,Enterococcus faecalis,250 µg/mL
same,MIC,Pseudomonas aeruginosa,125 µg/mL
same,MIC,Candida albicans,125 µg/mL
O=C(CSc1nc2ccccc2[nH]1)Nc1ccc(C(=O)/C=C/c2ccccc2[N+](=O)[O-])cc1,MIC,Staphylococcus aureus,31.2 µg/mL
same,MIC,Escherichia coli,31.2 µg/mL
same,MIC,Aspergillus niger,250 µg/mL
same,MIC,Enterococcus faecalis,250 µg/mL
same,MIC,Pseudomonas aeruginosa,250 µg/mL
same,MIC,Candida albicans,250 µg/mL
COc1ccc(OC)c(/C=C/C(=O)c2ccc(NC(=O)CSc3nc4ccccc4[nH]3)cc2)c1,MIC,Staphylococcus aureus,31.2 µg/mL
same,MIC,Escherichia coli,31.2 µg/mL
same,MIC,Aspergillus niger,125 µg/mL
same,MIC,Enterococcus faecalis,125 µg/mL
same,MIC,Pseudomonas aeruginosa,125 µg/mL
same,MIC,Candida albicans,250 µg/mL
COc1cc(/C=C/C(=O)c2ccc(NC(=O)CSc3nc4ccccc4[nH]3)cc2)ccc1O,MIC,Staphylococcus aureus,15.6 µg/mL
same,MIC,Escherichia coli,62.5 µg/mL
same,MIC,Aspergillus niger,125 µg/mL
same,MIC,Enterococcus faecalis,250 µg/mL
same,MIC,Pseudomonas aeruginosa,250 µg/mL
same,MIC,Candida albicans,62.5 µg/mL
O=C(CSc1nc2ccccc2[nH]1)Nc1ccc(C(=O)/C=C/c2c(O)ccc3ccccc23)cc1,MIC,Staphylococcus aureus,62.5 µg/mL
same,MIC,Escherichia coli,62.5 µg/mL
same,MIC,Aspergillus niger,62.5 µg/mL
same,MIC,Enterococcus faecalis,250 µg/mL
same,MIC,Pseudomonas aeruginosa,62.5 µg/mL
same,MIC,Candida albicans,125 µg/mL
O=C(CSc1nc2ccccc2[nH]1)Nc1ccc(C(=O)/C=C/c2ccccc2O)cc1,MIC,Staphylococcus aureus,62.5 µg/mL
same,MIC,Escherichia coli,31.2 µg/mL
same,MIC,Aspergillus niger,125 µg/mL
same,MIC,Enterococcus faecalis,125 µg/mL
same,MIC,Pseudomonas aeruginosa,31.2 µg/mL
same,MIC,Candida albicans,62.5 µg/mL
COc1ccc(/C=C/C(=O)c2ccc(NC(=O)CSc3nc4ccccc4[nH]3)cc2)cc1,MIC,Staphylococcus aureus,31.2 µg/mL
same,MIC,Escherichia coli,62.5 µg/mL
same,MIC,Aspergillus niger,125 µg/mL
same,MIC,Enterococcus faecalis,250 µg/mL
same,MIC,Pseudomonas aeruginosa,250 µg/mL
same,MIC,Candida albicans,125 µg/mL
O=C(CSc1nc2ccccc2[nH]1)Nc1ccc(C(=O)/C=C/c2ccc(O)cc2)cc1,MIC,Staphylococcus aureus,31.2 µg/mL
same,MIC,Escherichia coli,62.5 µg/mL
same,MIC,Aspergillus niger,125 µg/mL
same,MIC,Enterococcus faecalis,125 µg/mL
same,MIC,Pseudomonas aeruginosa,250 µg/mL
same,MIC,Candida albicans,125 µg/mL
O=C(CSc1nc2ccccc2[nH]1)Nc1ccc(C(=O)/C=C/c2ccccc2)cc1,MIC,Staphylococcus aureus,250 µg/mL
same,MIC,Escherichia coli,125 µg/mL
same,MIC,Aspergillus niger,125 µg/mL
same,MIC,Enterococcus faecalis,250 µg/mL
same,MIC,Pseudomonas aeruginosa,250 µg/mL
same,MIC,Candida albicans,250 µg/mL
O=C(CSc1nc2ccccc2[nH]1)Nc1ccc(C(=O)/C=C/c2ccc(Cl)cc2)cc1,MIC,Staphylococcus aureus,125 µg/mL
same,MIC,Escherichia coli,62.5 µg/mL
same,MIC,Aspergillus niger,125 µg/mL
same,MIC,Enterococcus faecalis,250 µg/mL
same,MIC,Pseudomonas aeruginosa,125 µg/mL
same,MIC,Candida albicans,250 µg/mL
O=C(O)c1cn(C2CC2)c2cc(N3CCNCC3)c(F)cc2c1=O [CIPROFLOXACIN],MIC,Staphylococcus aureus,62.5 µg/mL
same,MIC,Escherichia coli,125 µg/mL
same,MIC,Enterococcus faecalis,125 µg/mL
same,MIC,Pseudomonas aeruginosa,125 µg/mL
OC(Cn1cncn1)(Cn1cncn1)c1ccc(F)cc1F [FLUCONAZOLE],MIC,Aspergillus niger,62.5 µg/mL
same,MIC,Candida albicans,125 µg/mL
